The structures appear in SMILES notation.

In one assay the target is T1, hNaV1.2 (SCN2A) (Homo sapiens, UniProt Q99250).
T1 construct: expressed in transfected cells
In words: Use-dependent inhibition of the CNS NaV1.2 sodium channel. The format is cell-based. The note with it: HEK-293, % inhibition, 25 Hz; for inhibition at 1 µM: use-dependent block at 1 uM, read-out: Nav1.2 UDB 25 Hz 1 uM; for inhibition at 10 µM: use-dependent block at 10 uM, read-out: Nav1.2 UDB 25 Hz 10 uM. As for the experimental part:
HEK-293 cells stably expressing wild-type (WT) hNaV1.2 (SCN2A NCBI # NM_021007.2, SCN1B NCBI # NM_001037.4, SCN2B NCBI # NM_004588.2) were used to record INa. Cells are maintained with standard tissue culture procedures and stable channel expression is maintained with 800 ug/mL G418 and 3 ug/mL Puromycin in the culture medium. Unless otherwise noted, all reagents are purchased from Sigma-Aldrich (St Louis, Mo., U.S.A.).
Assays measuring Use-Dependent Block (UDB) of NaV1.2 are performed on an automated electrophysiology platform, QPatch 16X or QPatch HT (Sophion Bioscience, Copenhagen, Denmark), using the whole cell patch clamp technique to measure currents through the cell membrane. Series resistance compensation is set to 100% and series resistance and whole-cell compensation are performed automatically. Currents stored in the Sophion Bioscience Oracle database (Sophion Bioscience, Copenhagen, Denmark). Analysis is performed using QPatch Assay software and data are compiled in Excel 2010 (Microsoft, Seattle, Wash., U.S.A.). The internal (pipette) solution consists of (in mM) 105 CsF, 10 NaF, 20 CsCl, 2 EGTA, 10 HEPES, 10 Dextrose with a pH of 7.35 and osmolarity of 300 mOsmol/kg. The external (bath) solution contains in (mM): 145 NaCl, 4 KCl, 1.8 CaCl2, 1 MgCl2, 10 dextrose, 10 HEPES, with a pH of 7.35 and osmolarity of 310 mOsmol/kg. Experiments are carried out at 23-25° C.
(§1) Compound stocks are routinely made by the Gilead Sample Bank in vials to 10 mM in dimethyl sulfoxide (DMSO). In some cases, when compounds are not soluble in DMSO, they are made in 100% ethanol. Stocks are sonicated as necessary. […]
Cells are allowed to stabilize for 10 min after establishment of the whole-cell configuration before current is measured. The test compound is applied 2 times at 60 second intervals. After the second compound addition, a 200 second wait period was imposed to allow for equilibration. Leak currents are subtracted by using an online P/4 procedure and all currents are low-pass Bessel filtered at 5 kHz and digitized at […].
Results are presented as mean percentage inhibition.
Use-dependent block of NaV1.2 peak current is measured during pulse number 20 of a voltage pulse train (0 mV, 20 ms, 20 pulses, 25 Hz) from a holding potential of −120 mV.
Currents are normalized to the peak current recorded in response to the first pulse in each frequency train. The voltage protocol for UDB was performed in the absence and presence of compound and percentage inhibition was calculated with respect to the compound free condition.
Data analysis is performed using QPatch Assay Software 4.0, and Excel 2002 (Microsoft, Seattle, Wash., U.S.A.).

A further assay concerns the target hNaV1.1 (SCN1A) (Homo sapiens, UniProt P35498). In words: Use-dependent inhibition of the CNS NaV1.1 sodium channel. The class given is cell-based. The note with it: % inhibition, 25 Hz; for inhibition at 1 µM: use-dependent block at 1 uM, read-out: Nav1.1 UDB 25 Hz 1 uM; for inhibition at 10 µM: use-dependent block at 10 uM, read-out: Nav1.1 UDB 25 Hz 10 uM. The procedure: HEK-293 cells stably expressing wild-type (WT) hNaV1.1 (SCN1A, NCBI# AB09354) were obtained from Millipore (Cat. # CYL3009) were used to record INa. Cells are maintained with standard tissue culture procedures and stable channel expression is maintained with 400 ug/mL G418 in the culture medium. Unless otherwise noted, all reagents are purchased from Sigma-Aldrich (St Louis, Mo., U.S.A.).
Assays measuring Use-Dependent Block (UDB) of NaV1.2 are performed on an automated electrophysiology platform, QPatch 16X or QPatch HT (Sophion Bioscience, Copenhagen, Denmark), using the whole cell patch clamp technique to measure currents through the cell membrane. Series resistance compensation is set to 100% and series resistance and whole-cell compensation are performed automatically. Currents stored in the Sophion Bioscience Oracle database (Sophion Bioscience, Copenhagen, Denmark). Analysis is performed using QPatch Assay software and data are compiled in Excel 2010 (Microsoft, Seattle, Wash., U.S.A.).
The internal (pipette) solution consists of (in mM) 105 CsF, 10 NaF, 20 CsCl, 2 EGTA, 10 HEPES, 10 Dextrose with a pH of 7.35 and osmolarity of 300 mOsmol/kg. The external (bath) solution contains in (mM): 145 NaCl, 4 KCl, 1.8 CaCl2, 1 MgCl2, 10 dextrose, 10 HEPES, with a pH of 7.35 and osmolarity of 310 mOsmol/kg. Experiments are carried out at 23-25° C.
as §1
Cells are allowed to stabilize for 10 min after establishment of the whole-cell configuration before current is measured. The test compound is applied 2 times at 60 second intervals. After the second compound addition, a 200 second wait period was imposed to allow for equilibration.
Leak currents are subtracted by using an online P/4 procedure and all currents are low-pass Bessel filtered at 5 kHz and digitized at […].
Use-dependent block of NaV1.2 peak current is measured during pulse number 20 of a voltage pulse train (0 mV, 20 ms, 20 pulses, 25 Hz) from a holding potential of −120 mV. Currents are normalized to the peak current recorded in response to the first pulse in each frequency train. The voltage protocol for UDB was performed in the absence and presence of compound and percentage inhibition was calculated with respect to the compound free condition. Results are presented as mean percentage inhibition and data analysis is performed using QPatch Assay Software 4.0, and Excel 2002 (Microsoft, Seattle, Wash., U.S.A.).

T1 sequence (Q99250 whole entry): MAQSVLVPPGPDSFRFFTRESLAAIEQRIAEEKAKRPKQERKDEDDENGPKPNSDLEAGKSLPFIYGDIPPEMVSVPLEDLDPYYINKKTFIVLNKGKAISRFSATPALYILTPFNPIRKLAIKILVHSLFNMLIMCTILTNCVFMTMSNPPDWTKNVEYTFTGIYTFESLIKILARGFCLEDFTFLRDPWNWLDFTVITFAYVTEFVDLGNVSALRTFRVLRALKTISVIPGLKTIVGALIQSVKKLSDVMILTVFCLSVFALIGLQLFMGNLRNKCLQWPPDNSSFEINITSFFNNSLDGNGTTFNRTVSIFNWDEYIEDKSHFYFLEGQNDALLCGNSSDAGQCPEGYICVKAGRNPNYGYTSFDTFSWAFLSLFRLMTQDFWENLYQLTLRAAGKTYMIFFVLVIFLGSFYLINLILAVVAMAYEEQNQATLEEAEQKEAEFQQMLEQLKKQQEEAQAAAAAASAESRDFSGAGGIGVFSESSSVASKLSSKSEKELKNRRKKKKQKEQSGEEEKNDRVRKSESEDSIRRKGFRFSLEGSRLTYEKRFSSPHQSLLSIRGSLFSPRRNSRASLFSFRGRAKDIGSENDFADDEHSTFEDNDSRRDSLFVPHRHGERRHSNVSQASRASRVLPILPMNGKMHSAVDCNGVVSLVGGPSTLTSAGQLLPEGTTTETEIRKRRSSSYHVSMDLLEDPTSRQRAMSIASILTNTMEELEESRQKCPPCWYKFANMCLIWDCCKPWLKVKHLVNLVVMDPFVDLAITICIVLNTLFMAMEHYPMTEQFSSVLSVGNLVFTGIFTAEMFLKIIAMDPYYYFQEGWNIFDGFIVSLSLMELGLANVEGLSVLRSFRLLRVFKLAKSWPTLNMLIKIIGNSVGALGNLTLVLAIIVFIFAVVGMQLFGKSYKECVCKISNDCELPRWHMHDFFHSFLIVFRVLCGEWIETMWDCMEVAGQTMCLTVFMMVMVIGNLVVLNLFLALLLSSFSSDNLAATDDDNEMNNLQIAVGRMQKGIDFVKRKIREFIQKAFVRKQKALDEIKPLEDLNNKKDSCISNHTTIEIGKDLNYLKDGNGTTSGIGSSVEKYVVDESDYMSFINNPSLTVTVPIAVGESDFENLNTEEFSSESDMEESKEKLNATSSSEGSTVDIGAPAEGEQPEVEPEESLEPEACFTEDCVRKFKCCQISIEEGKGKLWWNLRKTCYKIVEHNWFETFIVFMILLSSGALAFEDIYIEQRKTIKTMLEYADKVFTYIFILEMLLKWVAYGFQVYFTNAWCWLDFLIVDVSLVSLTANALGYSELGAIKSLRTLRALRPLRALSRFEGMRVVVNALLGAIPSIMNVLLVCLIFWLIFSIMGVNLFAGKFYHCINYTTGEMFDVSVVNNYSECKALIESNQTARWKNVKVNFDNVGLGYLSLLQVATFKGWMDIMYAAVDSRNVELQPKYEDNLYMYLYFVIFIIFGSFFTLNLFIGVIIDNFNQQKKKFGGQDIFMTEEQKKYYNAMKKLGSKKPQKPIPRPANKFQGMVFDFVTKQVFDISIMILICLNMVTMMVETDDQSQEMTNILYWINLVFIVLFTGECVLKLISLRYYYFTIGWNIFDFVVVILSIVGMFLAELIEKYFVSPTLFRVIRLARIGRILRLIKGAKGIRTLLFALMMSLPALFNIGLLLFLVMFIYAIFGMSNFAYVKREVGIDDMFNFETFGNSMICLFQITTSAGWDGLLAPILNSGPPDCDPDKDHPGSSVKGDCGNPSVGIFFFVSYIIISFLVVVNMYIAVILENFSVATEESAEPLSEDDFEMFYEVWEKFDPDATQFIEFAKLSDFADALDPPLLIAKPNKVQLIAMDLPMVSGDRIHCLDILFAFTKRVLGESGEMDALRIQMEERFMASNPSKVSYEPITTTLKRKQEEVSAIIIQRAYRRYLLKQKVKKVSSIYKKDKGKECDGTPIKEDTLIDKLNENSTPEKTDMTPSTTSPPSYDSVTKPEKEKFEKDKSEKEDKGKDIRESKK
T1 sequence (Q07699 19-218 partner): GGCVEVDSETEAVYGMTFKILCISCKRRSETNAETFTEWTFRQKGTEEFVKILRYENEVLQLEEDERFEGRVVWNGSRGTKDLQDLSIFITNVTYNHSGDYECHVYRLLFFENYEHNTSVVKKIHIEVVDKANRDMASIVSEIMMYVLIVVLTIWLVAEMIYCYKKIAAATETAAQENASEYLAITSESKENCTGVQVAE
T1 sequence (O60939 30-215 partner): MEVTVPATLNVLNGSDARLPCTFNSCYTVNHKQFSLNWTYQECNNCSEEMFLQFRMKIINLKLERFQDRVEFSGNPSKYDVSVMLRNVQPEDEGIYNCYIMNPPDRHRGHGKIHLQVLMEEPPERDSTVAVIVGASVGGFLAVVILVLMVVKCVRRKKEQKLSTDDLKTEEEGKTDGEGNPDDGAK

For `O=C1Oc2ccc(-c3ccc(C(F)(F)F)cc3)cc2CN1CCc1ncccn1` [Example 17, 3-(2-(pyrimidin-2-yl)ethyl)-6-(4-(trifluoromethyl)phenyl)-3,4-dihydro-2H-benzo[e][1,3]oxazin-2-one], on hNaV1.2 (SCN2A), the inhibition at 1 µM turned out to be 34.2% and the inhibition at 10 µM worked out at 56.6%. Further, on hNaV1.1 (SCN1A), the inhibition at 1 µM was determined as 34.8% and the inhibition at 10 µM came out at 60.9%.
For `COc1cc(OC(F)(F)F)ccc1-c1ccc2c(c1)CN(CCc1ncccn1)C(=O)O2` [Example 18, 6-(2-methoxy-4-(trifluoromethoxy)phenyl)-3-(2-(pyrimidin-2-yl)ethyl)-3,4-dihydro-2H-benzo[e][1,3]oxazin-2-one], at hNaV1.2 (SCN2A), the inhibition at 1 µM is 9.1% and the inhibition at 10 µM amounted to 54.9%. Also, on hNaV1.1 (SCN1A), the inhibition at 1 µM turned out to be 16.9% and the inhibition at 10 µM was 73.4%.
Take `CCCOc1cc(C(F)(F)F)ccc1-c1ccc2c(c1)CN(CCc1ncccn1)C(=O)O2` [Example 19, 6-(2-propoxy-4-(trifluoromethyl)phenyl)-3-(2-(pyrimidin-2-yl)ethyl)-3,4-dihydro-2H-benzo[e][1,3]oxazin-2-one]: at hNaV1.2 (SCN2A), the inhibition at 1 µM was determined as 30.6% and the inhibition at 10 µM was determined as 64%. Further, on hNaV1.1 (SCN1A), the inhibition at 1 µM worked out at 30.8% and the inhibition at 10 µM is 78.4%.
The matching figures for `O=C1Oc2ccc(-c3ccc(OC(F)(F)F)cc3)cc2CN1Cc1ccccn1` [Example 20, 3-(pyridin-2-ylmethyl)-6-(4-(trifluoromethoxy)phenyl)-3,4-dihydro-2H-benzo[e][1,3]oxazin-2-one]: 30.2%, 69.8%, 29.1% and 82%.
As to `O=C1Oc2ccc(-c3ccc(OC(F)(F)F)cc3F)cc2CN1Cc1ccccn1` [Example 21, 6-(2-fluoro-4-(trifluoromethoxy)phenyl)-3-(pyridin-2-ylmethyl)-3,4-dihydro-2H-benzo[e][1,3]oxazin-2-one], at hNaV1.2 (SCN2A), the inhibition at 1 µM is less than 5% and the inhibition at 10 µM was 59.4%. In addition, on hNaV1.1 (SCN1A), the inhibition at 1 µM was less than 5% and the inhibition at 10 µM stood at 50.8%.
As to `COc1cc(OC(F)(F)F)ccc1-c1ccc2c(c1)CN(Cc1ccccn1)C(=O)O2` [Example 22, 6-(2-methoxy-4-(trifluoromethoxy)phenyl)-3-(pyridin-2-ylmethyl)-3,4-dihydro-2H-benzo[e][1,3]oxazin-2-one], at hNaV1.2 (SCN2A), the inhibition at 1 µM is less than 5% and the inhibition at 10 µM was found to be 55.6%. In addition, at hNaV1.1 (SCN1A), the inhibition at 1 µM was less than 5% and the inhibition at 10 µM came out at 56.3%.
`Cc1cc(OC(F)(F)F)ccc1-c1ccc2c(c1)CN(Cc1ccccn1)C(=O)O2` [Example 23, 6-(2-methyl-4-(trifluoromethoxy)phenyl)-3-(pyridin-2-ylmethyl)-3,4-dihydro-2H-benzo[e][1,3]oxazin-2-one]: on hNaV1.2 (SCN2A), the inhibition at 1 µM is less than 5% and the inhibition at 10 µM was 56%. Also, at hNaV1.1 (SCN1A), the inhibition at 1 µM worked out at 5.2% and the inhibition at 10 µM turned out to be 75.2%.
Regarding `O=C1Oc2ccc(-c3ccc(C(F)(F)F)cc3)cc2CN1Cc1ccccn1` [Example 24, 3-(pyridin-2-ylmethyl)-6-(4-(trifluoromethyl)phenyl)-3,4-dihydro-2H-benzo[e][1,3]oxazin-2-one], the inhibition at 1 µM on hNaV1.2 (SCN2A) was 32.7%; at hNaV1.1 (SCN1A), 44.9%. Besides, the values for the inhibition at 10 µM at hNaV1.2 (SCN2A) and on hNaV1.1 (SCN1A) were 71.4% and 79.6%, respectively.
On to `CC(C)Oc1cc(C(F)(F)F)ccc1-c1ccc2c(c1)CN(Cc1ncccn1)C(=O)O2` [Example 25, 6-(2-isopropoxy-4-(trifluoromethyl)phenyl)-3-(pyrimidin-2-ylmethyl)-3,4-dihydro-2H-benzo[e][1,3]oxazin-2-one], for which, at hNaV1.2 (SCN2A), the inhibition at 1 µM is 29.9% and the inhibition at 10 µM is 72.1%. For the same compound, at hNaV1.1 (SCN1A), the inhibition at 1 µM came to 31.7% and the inhibition at 10 µM was 75.3%.
For `O=C1Oc2ccc(-c3ccc4c(c3)OC(F)(F)O4)cc2CN1Cc1ncccn1` [Example 26, 6-(2,2-difluorobenzo[d][1,3]dioxol-5-yl)-3-(pyrimidin-2-ylmethyl)-3,4-dihydro-2H-benzo[e][1,3]oxazin-2-one], in that order: 28%, 71.1%, 14.8% and 66.1%.
With `CCCOc1cc(C(F)(F)F)ccc1-c1ccc2c(c1)CN(Cc1ncccn1)C(=O)O2` [Example 27, 6-(2-propoxy-4-(trifluoromethyl)phenyl)-3-(pyrimidin-2-ylmethyl)-3,4-dihydro-2H-benzo[e][1,3]oxazin-2-one], the inhibition at 1 µM at hNaV1.2 (SCN2A) turned out to be 42.2%; on hNaV1.1 (SCN1A) it was 28.4%. Also, the inhibition at 10 µM is 80.6% at hNaV1.2 (SCN2A) and 77.5% at hNaV1.1 (SCN1A).
For the compound `CCCOc1cc(OC(F)(F)F)ccc1-c1ccc2c(c1)CN(Cc1ncccn1)C(=O)O2` [Example 28, 6-(2-propoxy-4-(trifluoromethoxy)phenyl)-3-(pyrimidin-2-ylmethyl)-3,4-dihydro-2H-benzo[e][1,3]oxazin-2-one], at hNaV1.2 (SCN2A), the inhibition at 1 µM is 17.1% and the inhibition at 10 µM stood at 58%. Moreover, on hNaV1.1 (SCN1A), the inhibition at 1 µM is 25.2% and the inhibition at 10 µM is 67.4%.
`Cc1ccnc(CN2Cc3cc(-c4ccc(OC(F)(F)F)cc4)ccc3OC2=O)n1` [Example 29, 3-((4-methylpyrimidin-2-yl)methyl)-6-(4-(trifluoromethoxy)phenyl)-3,4-dihydro-2H-benzo[e][1,3]oxazin-2-one]: on hNaV1.2 (SCN2A), the inhibition at 1 µM was found to be 36.1% and the inhibition at 10 µM came out at 81.7%. On hNaV1.1 (SCN1A), the inhibition at 1 µM was determined as 44.7% and the inhibition at 10 µM is 86.8%.
Turning to `Cc1ccnc(CN2Cc3cc(-c4ccc(C(F)(F)F)cc4)ccc3OC2=O)n1` [Example 30, 3-((4-methylpyrimidin-2-yl)methyl)-6-(4-(trifluoromethyl)phenyl)-3,4-dihydro-2H-benzo[e][1,3]oxazin-2-one], on hNaV1.2 (SCN2A), the inhibition at 1 µM stood at 47.1% and the inhibition at 10 µM was 79.6%. Also, at hNaV1.1 (SCN1A), the inhibition at 1 µM worked out at 49.7% and the inhibition at 10 µM amounted to 87.5%.

For the origin of these results see US9416128B2, “Fused heterocyclic compounds as ion channel modulators” (Gilead Sciences, Inc., priority 2013, dated 2016).
